According to ChEMBL document CHEMBL1123767, “High-affinity leukotriene receptor antagonists. Synthesis and pharmacological characterization of 2-hydroxy-3-[(2-carboxyethyl)thio]-3-[2-(8-phenyloctyl)phenyl] propanoic acid” (J Med Chem, 1987):

Legend:
[1] = species: Cavia porcellus; assay: In vitro ability to antagonize LTD4-induced contractions of guinea pig smooth muscle (trachea) at 10 uM concentration.; assay type: functional
[2] = target: T1, Cysteinyl leukotriene receptor 1 (Cavia porcellus, UniProt Q2NNR5); assay: Binding affinity against Cysteinyl leukotriene D4 receptor in guinea pig lung membranes using [3H]LTD4 as the radioligand.; assay type: cell membranes, Membrane
T1 sequence (Q2NNR5 whole entry): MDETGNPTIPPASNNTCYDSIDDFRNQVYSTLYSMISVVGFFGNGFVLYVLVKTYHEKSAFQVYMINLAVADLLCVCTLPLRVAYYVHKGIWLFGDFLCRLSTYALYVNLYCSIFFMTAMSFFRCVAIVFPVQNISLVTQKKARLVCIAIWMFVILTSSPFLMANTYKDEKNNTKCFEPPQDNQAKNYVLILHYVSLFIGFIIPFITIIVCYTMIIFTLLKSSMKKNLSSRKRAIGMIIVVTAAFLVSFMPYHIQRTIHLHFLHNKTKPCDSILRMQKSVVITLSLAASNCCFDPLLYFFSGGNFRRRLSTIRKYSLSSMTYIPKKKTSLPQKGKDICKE

[3] = target: T2, Cysteinyl leukotriene receptor 1 (Cavia porcellus) (UniProt Q2NNR5); assay: (§1) In vitro ability to antagonize LTC4-induced contractions of guinea pig smooth muscle (trachea) at 10 uM concentration.; assay type: functional, tissue-based
T2 sequence (whole entry): T1 sequence (Q2NNR5 whole entry)

[4] = species: Homo sapiens; assay: In vitro ability to antagonize LTC4-induced contractions of human smooth muscle (bronchus) at 10 uM concentration.; assay type: functional
[5] = species: Cavia porcellus; assay: as §1; assay type: functional
[6] = species: Homo sapiens; assay: Ability to antagonize LTD4-induced contractions of human airway smooth muscle (bronchus) at 10 uM concentration; assay type: functional
[7] = species: Homo sapiens; assay: In vitro ability to antagonize LTC4-induced contractions of human smooth muscle (bronchus) at 3 uM concentration.; assay type: functional
[8] = target: T2, Cysteinyl leukotriene receptor 1 (Cavia porcellus); settings: Trachea, 3 uM
Description: In vitro ability to antagonize LTC4-induced contractions of guinea pig smooth muscle (trachea) at 3 uM concentration.

[9] = species: Homo sapiens; assay: In vitro ability to antagonize LTD4-induced contractions of human airway smooth muscle (bronchus) at 3 uM concentration; assay type: functional
[10] = target: T3, Cysteinyl leukotriene receptor 1 (Homo sapiens, UniProt Q9Y271); assay: Binding affinity against Cysteinyl leukotriene D4 receptor in human lung membranes using [3H]LTD4 as the radioligand.; assay type: cell membranes, Membrane
T3 sequence (Q9Y271 whole entry): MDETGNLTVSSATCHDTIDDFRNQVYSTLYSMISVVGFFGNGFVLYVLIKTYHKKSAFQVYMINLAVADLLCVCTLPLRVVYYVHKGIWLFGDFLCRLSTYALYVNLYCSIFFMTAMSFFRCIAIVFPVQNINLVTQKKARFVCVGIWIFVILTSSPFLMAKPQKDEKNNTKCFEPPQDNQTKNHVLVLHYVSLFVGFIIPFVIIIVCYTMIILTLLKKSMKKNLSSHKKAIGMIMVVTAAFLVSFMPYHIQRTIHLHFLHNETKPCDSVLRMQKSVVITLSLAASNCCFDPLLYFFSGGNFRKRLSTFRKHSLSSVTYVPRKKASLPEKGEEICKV

[11] = species: Cavia porcellus; assay: In vitro ability to antagonize LTD4-induced contractions of guinea pig smooth muscle (trachea) at 3 uM concentration.; assay type: functional

O=C(O)CCS[C@@H](c1ccccc1CCCCCCCCc1ccccc1)[C@H](O)C(=O)O was tested, and the pKb [1] was 6.1 and the Ki [2] was 180 nM.
For O=C(O)CCSC(CC(=O)O)c1ccccc1CCCCCCCCc1ccccc1 (stereo not given), the pKb [3] was 5.1, the pKb [1] was 7 and the Ki [2] was 60 nM.
For CCCc1c(OCC(O)COc2ccc3c(=O)cc(C(=O)O)oc3c2CCC)ccc(C(C)=O)c1O (stereo not given) [FPL-55712], the pKb [4] was 6.4, the pKb [5] was 4.9 and the pKb [6] was 5.8. It also gave a pKb [1] of 6.7.
O=C(O)CCS[C@H](c1ccccc1CCCCCCCCc1ccccc1)[C@@H](O)C(=O)O [POBILUKAST] showed a pKb [7] of 8.3, a pKb [8] of under 5.4 and a pKb [9] of 8.2. The Ki [10] was 10 nM, the pKb [11] was 8.6 and the Ki [2] was 5 nM.
